Experimental data published in the NIST ThermoML archive (doi:10.1021/je1011423).
± gives the expanded uncertainty stated by the source.

Settings: Crystal; thermal gravimetric analysis

## O=[N+]([O-])c1cc([N+](=O)[O-])c(O)c(Cl)c1O [2-chloro-4,6-dinitroresorcinol]
  Normal melting temperature: 185.00 ± 0.01 °C
